In patent US9125915B2, “Antitumor agent” (Mitsubishi Tanabe Pharma Corporation, priority 2007, dated 2015) one finds GI50 and IC50 data, which are given here for 18 compounds.

Where two headings read alike, the source gives them in different places.

The subject of one test is HL-60. The experiment in a line: Growth suppressive activity test against cancer cells (WST-8), HL-60. In kind it is cell-based. The settings on record: Homo sapiens, 72 h, HL-60, promyelocytic leukemia, 3 days culture, read-out: cell proliferation suppressive activity GI50. The procedure:
(§1) Using RPMI 1640 medium (manufactured by SIGMA) supplemented with 10% fetal bovine serum, human promyelocytic leukemia-derived cell line HL-60, human acute lymphoblastic leukemia-derived cell line MOLT4, human Burkitt's lymphoma-derived cell line Daudi, and human multiple myeloma-derived cell line RPMI-8226 were respectively cultured at 37° C., 5% CO2. In addition, using ISKOV medium (manufactured by SIGMA) supplemented with 10% fetal bovine serum, human chronic myeloid leukemia-derived cell line MV4-11 was cultured at 37° C., 5% CO2. Moreover, using DMEM/F-12 medium (manufactured by SIGMA) supplemented with 10% fetal bovine serum, human lung cancer cell-derived cell line EBC-1, human hepatocellular cancer-derived cell line Kim-1, human colorectal cancer-derived cell line HCT-116, human prostate cancer-derived cell line PC-3, human ovarian cancer-derived cell line A2780, and human osteosarcoma-derived cell line Saos2 were respectively cultured at 37° C., 5% CO2. […] The absorbance at 650 nm was subtracted from the absorbance at 450 nm. The growth suppressive activity was shown by a decrease rate of the absorbance of the compound addition group to that of the compound non-addition group, and GI50 value was determined from a dose-reaction curve plotting a decrease rate of the absorbance obtained by changing the compound concentration and the compound concentrations.
In general terms: Formazan colour is commonly taken as a measure of viable cells.

The subject of a further test is MV4-11. The experiment in a line: Growth suppressive activity test against cancer cells (WST-8), MV4-11. In kind it is cell-based, human. The procedure:
Using RPMI 1640 medium (manufactured by SIGMA) supplemented with 10% fetal bovine serum, human promyelocytic leukemia-derived cell line HL-60, human acute lymphoblastic leukemia-derived cell line MOLT4, human Burkitt's lymphoma-derived cell line Daudi, and human multiple myeloma-derived cell line RPMI-8226 were respectively cultured at 37° C., 5% CO2. In addition, using ISKOV medium (manufactured by SIGMA) supplemented with 10% fetal bovine serum, human chronic myeloid leukemia-derived cell line MV4-11 was cultured at 37° C., 5% CO2. Moreover, using DMEM/F-12 medium (manufactured by SIGMA) supplemented with 10% fetal bovine serum, human lung cancer cell-derived cell line EBC-1, human hepatocellular cancer-derived cell line Kim-1, human colorectal cancer-derived cell line HCT-116, human prostate cancer-derived cell line PC-3, human ovarian cancer-derived cell line A2780, and human osteosarcoma-derived cell line Saos2 were respectively cultured at 37° C., 5% CO2. These cells were plated on a 96 well plate, and cultured for 1 day. Thereto was added a compound diluted with the medium to a final concentration of 0.0003-10 μm (final DMSO concentration, 0.4%). After culture for 3 more days, WST-8 (0.16 mg/mL) was added to the culture medium and the cells were cultured for 2 hr. The absorbance at 650 nm was subtracted from the absorbance at 450 nm. The growth suppressive activity was shown by a decrease rate of the absorbance of the compound addition group to that of the compound non-addition group, and GI50 value was determined from a dose-reaction curve plotting a decrease rate of the absorbance obtained by changing the compound concentration and the compound concentrations.

A further test has as its system Daudi. The experiment in a line: Growth suppressive activity test against cancer cells (WST-8), Daudi. Type of test: cell-based. The settings on record: Homo sapiens, 72 h, Burkitt's lymphoma, 3 days culture, read-out: cell proliferation suppressive activity GI50. The procedure:
as §1

Another test relates to RPMI-8226. The experiment in a line: Growth suppressive activity test against cancer cells (WST-8), RPMI-8226. Type of test: cell-based. The note with it: Homo sapiens, 72 h, RPMI-8226, multiple myeloma, 3 days culture, read-out: cell proliferation suppressive activity GI50. The procedure: as §1
Another test concerns Kim-1. The experiment in a line: Growth suppressive activity test against cancer cells (WST-8), Kim-1. The note with it: Homo sapiens, 72 h, Kim-1, hepatocellular cancer, 3 days culture, read-out: cell proliferation suppressive activity GI50. In kind it is cell-based. The procedure:
as §1

For a further test, the system named is MOLT-4. The experiment in a line: Growth suppressive activity test against cancer cells (WST-8), MOLT-4. Type of test: cell-based. The note with it: Homo sapiens, 72 h, MOLT-4, acute lymphoblastic leukemia, 3 days culture, read-out: cell proliferation suppressive activity GI50. The procedure:
as §1

In another test the test system is A-2780. The experiment in a line: Growth suppressive activity test against cancer cells (WST-8), A-2780. In kind it is cell-based. The note with it: Homo sapiens, A2780, 72 h, A-2780, ovarian cancer, 3 days culture, read-out: cell proliferation suppressive activity GI50. The procedure: as §1
The test system of the next test is PC-3. The experiment in a line: Growth suppressive activity test against cancer cells (WST-8), PC-3. Type of test: cell-based. The settings on record: Homo sapiens, 72 h, PC-3, prostate cancer, 3 days culture, read-out: cell proliferation suppressive activity GI50. The procedure: as §1
Another test relates to EBC-1. The experiment in a line: Growth suppressive activity test against cancer cells (WST-8), EBC-1. The note with it: Homo sapiens, 72 h, EBC-1, non-small cell lung cancer, 3 days culture, read-out: cell proliferation suppressive activity GI50. In kind it is cell-based. The procedure: as §1
Another test has as its system Saos2. The experiment in a line: Growth suppressive activity test against cancer cells (WST-8), Saos2. In kind it is cell-based. The settings on record: Homo sapiens, SAOS-2, 72 h, Saos2, osteosarcoma, 3 days culture, read-out: cell proliferation suppressive activity GI50. The procedure: as §1
For another test, the system named is HCT-116. The experiment in a line: Growth suppressive activity test against cancer cells (WST-8), HCT-116. In kind it is cell-based. The note with it: Homo sapiens, 72 h, HCT-116, colorectal cancer, 3 days culture, read-out: cell proliferation suppressive activity GI50. The procedure: as §1
The next test concerns the target BRD4 (Homo sapiens (Human), UniProt O60885). The experiment in a line: Binding inhibitory test of acetylated histone H4 and BRD4 (TR-FRET). The note with it: CHO cell lysate with Flag-BRD4, biotin-labeled acetylated histone H4 peptide. The procedure: An expression vector containing cDNA of BRD2, 3 and 4 added with Flag-tag was transfected to CHO cell, and a cell lysate was prepared 24 hr later. Binding of acetylated histone H4 and BRD was confirmed by a Time Resolved Fluorescence Resonance Energy Transfer (TR-FRET) method. To a 384-well white plate (manufactured by Coaster) were added 50 nmol/L biotin-labeled acetylated histone H4 peptide (manufactured by Upstate) and a serially diluted test compound.

The mark [1] stands for this setting: Homo sapiens, 72 h, MV4-11, chronic myeloid leukemia, 3 days culture, read-out: cell proliferation suppressive activity GI50.
The mark [2] stands for this setting: Homo sapiens, 72 h, MV4-11, 3 days culture, read-out: growth suppressive activity on MV4-11 GI50.
The mark [3] stands for this setting: MV4-11, 3 days culture, read-out: growth suppressive activity on MV4-11 GI50.

A word on the IC50: it is the concentration needed to halve the response being measured. Lower therefore signals inhibition by little substance.

`Cc1sc2c(c1C)C(c1ccc(Cl)cc1)=N[C@@H](CC(=O)Nc1ccc(O)cc1)c1nnc(C)n1-2` [Compound 1, (S)-2-[4-(4-chlorophenyl)-2,3,9-trimethyl-6H-thieno[3,2-f][1,2,4]triazolo[4,3-a][1,4]diazepin-6-yl]-N-(4-hydroxyphenyl)acetamide]: the GI50 in the test with HL-60 came to 149 nM; in the test with MV4-11 (setting [1]) it was 60.7 nM; with Daudi, 611 nM; with RPMI-8226 it was 130 nM; in the test with Kim-1, 569 nM; with MOLT-4, 80 nM. Also, the GI50 in the test on A-2780 is 619 nM; in the test on PC-3, 1030 nM; in the test on EBC-1, 491 nM; in the test with Saos2 it was 481 nM; in the test on HCT-116, 563 nM.

On BRD4, `COC(=O)C[C@@H]1N=C(c2ccc(-c3cccc(C#N)c3)cc2)c2c(sc(C)c2C)-n2c(C)nnc21` [Compound 2, methyl (S)-{4-(3′-cyanobiphenyl-4-yl)-2,3,9-trimethyl-6H-thieno[3,2-f][1,2,4]triazolo[4,3-a][1,4]diazepin-6-yl}acetate] gave a 50% inhibitory concentration (IC50) of 121 nM. The GI50 in the test on HL-60 is 7 nM; in the test on MV4-11 (setting [2]), 19 nM; in the test with MV4-11 (setting [1]), 19 nM; in the test on Daudi it was 67.4 nM; with RPMI-8226, 69.4 nM; in the test with Kim-1 it was 104 nM. For the same compound, the GI50 in the test on MOLT-4 worked out at 106 nM; with A-2780, 130 nM; with PC-3 it was 199 nM; in the test on EBC-1, 207 nM; with Saos2 it was 269 nM; in the test with HCT-116, 356 nM.

At BRD4, `CCOC(=O)C[C@@H]1N=C(c2ccc(Nc3cccnc3)cc2)c2c(sc(C)c2C)-n2c(C)nnc21` [compound 3] gave an IC50 of 54.9 nM. Further, in the test with MV4-11 (setting [3]), the GI50 amounted to 20 nM.

At BRD4, `COC(=O)C[C@@H]1N=C(c2ccc(Nc3c(F)cc(F)cc3F)cc2)c2c(sc(CO)c2C)-n2c(C)nnc21` [compound 4] showed an IC50 of 77.2 nM. The GI50 with MV4-11 (setting [3]) amounted to 95 nM.

As for `COC(=O)C[C@@H]1N=C(c2ccc(Cl)cc2)c2c(sc(Cl)c2C)-n2c(C)nnc21` [compound 5], the half-inhibitory concentration (IC50) at BRD4 was found to be 54.2 nM. For the same compound, the GI50 with MV4-11 (setting [3]) was determined as 73 nM.

In turn, `COC(=O)C[C@@H]1N=C(c2ccc(Cl)cc2)c2c(sc(C)c2C)-n2c(C)nnc21` [compound 6] displayed a 50% inhibitory concentration (IC50) on BRD4 of 18.2 nM. For the same compound, the GI50 with MV4-11 (setting [3]) came to 26 nM.

In turn, `COC(=O)C[C@@H]1N=C(c2ccc(-c3ccc(OC)cc3)cc2)c2c(sc(CO)c2C)-n2c(C)nnc21` [compound 7] returned an IC50 at BRD4 of 113 nM. The GI50 with MV4-11 (setting [3]) was 55 nM.

With `COC(=O)C[C@@H]1N=C(c2ccc(Nc3ccccc3)cc2)c2c(sc(C)c2C)-n2c(C)nnc21` [compound 8, methyl (S)-{2,3,9-trimethyl-4-(4-phenylaminophenyl)-6H-thieno[3,2-f][1,2,4]triazolo[4,3-a][1,4]diazepin-6-yl}acetate], the GI50 in the test with MV4-11 (setting [2]) is 9 nM.

As to `COC(=O)C[C@@H]1N=C(c2ccc(NCc3ccccc3)cc2)c2c(sc(C)c2C)-n2c(C)nnc21` [compound 9], the IC50 at BRD4 was found to be 73.6 nM. For the same compound, the GI50 in the test on MV4-11 (setting [3]) was 39 nM.

On BRD4, `COC(=O)C[C@@H]1N=C(c2ccc(NC(=O)CCc3ccccc3)cc2)c2c(sc(C)c2C)-n2c(C)nnc21` [compound 10, methyl (S)-{2,3,9-trimethyl-4-[4-(3-phenylpropionylamino)phenyl]-6H-thieno[3,2-f][1,2,4]triazolo[4,3-a][1,4]diazepin-6-yl}acetate] showed an IC50 of 47.1 nM. For the same compound, the GI50 with MV4-11 (setting [2]) is 7 nM.

Take `CCOC(=O)C[C@@H]1N=C(c2ccc(N(C)c3ccc(F)cc3)cc2)c2c(sc(C)c2C)-n2c(C)nnc21` [compound 11]: the concentration for half-maximal inhibition (IC50) on BRD4 came to 225 nM. For the same compound, the GI50 with MV4-11 (setting [3]) amounted to 95 nM.

On BRD4, `Cc1sc2c(c1C)C(c1ccc(Cl)cc1)=NC(CC(=O)Nc1cccnc1)c1nnc(C)n1-2` (stereo not drawn) [compound 12] returned an IC50 of 108 nM. In addition, in the test with MV4-11 (setting [3]), the GI50 came out at 30 nM.

Turning to `CNC(=O)CC1N=C(c2ccc(Cl)cc2)c2c(sc(C)c2C)-n2c(C)nnc21` (stereo not drawn) [compound 13], at BRD4, the half-maximal inhibitory concentration (IC50) worked out at 17.3 nM. Besides, the GI50 in the test on MV4-11 (setting [3]) was found to be 22 nM.

For the compound `Cc1sc2c(c1C)C(c1ccc(Cl)cc1)=NC(CC(=O)NCCO)c1nnc(C)n1-2` (stereo not drawn) [compound 14], in the test on MV4-11 (setting [3]), the GI50 worked out at 42 nM.

As for `Cc1sc2c(c1C)C(c1ccc(Cl)cc1)=NC(CC(=O)Nc1ccc(N)cc1)c1nnc(C)n1-2` (stereo not drawn) [compound 15], the IC50 at BRD4 turned out to be 120 nM. Besides, the GI50 with MV4-11 (setting [3]) worked out at 34 nM.

`COc1ccc(NC(=O)C[C@@H]2N=C(c3ccc(Cl)cc3)c3c(sc(C)c3C)-n3c(C)nnc32)cn1` [compound 16] yielded a concentration for half-maximal inhibition (IC50) on BRD4 of 116 nM. In addition, the GI50 in the test on MV4-11 (setting [3]) was 28 nM.

`CONC(=O)C[C@@H]1N=C(c2ccc(Cl)cc2)c2c(sc(C)c2C)-n2c(C)nnc21` [compound 17] displayed a concentration for half-maximal inhibition (IC50) on BRD4 of 12.8 nM. Besides, the GI50 in the test with MV4-11 (setting [3]) was 14 nM.

For `COc1ncccc1NC(=O)C[C@@H]1N=C(c2ccc(Cl)cc2)c2c(sc(C)c2C)-n2c(C)nnc21` [compound 18], the IC50 on BRD4 is 147 nM. Moreover, in the test on MV4-11 (setting [3]), the GI50 worked out at 48 nM.
